Molecular target: T1, HCV NS3 helicase NS3h_1b(con1) (Hepatitis C virus genotype 1b, UniProt Q9WMX2)
T1 construct: truncated C-terminally His-tagged NS3 proteins lacking the N-terminal protease, called NS3h; His-tag (C); made in house
Test: MBHA screen of NCI mechanistic set library at 20 μM (percent inhibition, compound interference)
Assay type: biochemical
Conditions: compounds at 20 μM; for Inh. (%) (Inhibition): calculated from Equation 1
Summary of the method: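 Molecular beacon-based DNA unwinding assay; compounds screened at 20 μM in triplicate, with DMSO-only negative and 500 nM dT20 positive controls. Fluorescence (ex 643/em 670 nm) was read before and 30 min after adding ATP to 1 mM. Percent inhibition came from the change relative to DMSO controls; interference from pre-ATP fluorescence versus DMSO controls.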

[1] = MBHA with DNA substrate, assay interference calculated with Equation 2
[2] = assay interference calculated with Equation 2 (fluorescence vs DMSO-only controls before ATP)

T1 sequence (Q9WMX2 1192-1657): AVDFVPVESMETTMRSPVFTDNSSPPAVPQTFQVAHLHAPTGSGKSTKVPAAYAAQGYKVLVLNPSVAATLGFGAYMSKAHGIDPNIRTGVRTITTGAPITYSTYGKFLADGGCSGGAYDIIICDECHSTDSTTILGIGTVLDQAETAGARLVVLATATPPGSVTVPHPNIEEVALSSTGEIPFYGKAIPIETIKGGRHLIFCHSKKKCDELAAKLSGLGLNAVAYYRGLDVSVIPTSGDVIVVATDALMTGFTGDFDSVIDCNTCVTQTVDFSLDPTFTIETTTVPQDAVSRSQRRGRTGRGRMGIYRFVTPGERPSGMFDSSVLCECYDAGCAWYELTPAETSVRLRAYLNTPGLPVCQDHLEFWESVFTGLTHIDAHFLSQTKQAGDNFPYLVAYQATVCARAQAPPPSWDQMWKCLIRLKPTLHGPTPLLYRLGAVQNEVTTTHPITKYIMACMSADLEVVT

Structure (SMILES)	Int.* (Ratio) (Interference) [1]	Inh. (%) (Inhibition) (MBHA with DNA substrate)	Inh. (%) (Inhibition) (MBHA with a DNA substrate)	Int.* (Ratio) (Interference) [2]
CCCC/C=C/C=C/C=C/CCCCCCCC(=O)OCC(COC(=O)CCCCCCC/C=C/C1C=CC(CCCC)C(C(=O)O)C1C(=O)O)OC(=O)CCCCCCC/C=C/C=C/C=C/CCCC.OCCNCO (centres unmarked) [Compound 643834]	0.88	−1.3		
CCOC(=O)C1=C(C)NC(=S)NC1c1ccccc1 (centres unmarked) [Compound 643910]			−21.3	1.06
Cc1ccccc1NC(=O)C(=O)C(c1cnc2ccc([N+](=O)[O-])cc2n1)[N+](=O)[O-] (centres unmarked) [Compound 644735]	0.94	17.3		
O=C(Nc1cccc(C(F)(F)F)c1)C(=O)C(C(=O)c1ccc(Cl)c(Cl)c1)C1OC(=O)c2ccccc21 (centres unmarked) [Compound 644794]	0.96	−17.5		
Clc1ccc(-c2c(C3=NCCCN3)nnn2-c2ccc(Cl)cc2)cc1 [Compound 645033]	0.96	−18.4		
CC(C)OP(=O)(OC(C)C)C(N(C)C)P(=O)(OC(C)C)OC(C)C.[Cl][Sn]([Cl])([Cl])[c]1ccccc1 [Compound 645567]	1.04	2.4		
Oc1cc(-n2cccn2)c(O)cc1-n1cccn1 [Compound 645987]			−7.0	0.88
CCOC(OC1=C(C#N)CCC1)C(C)[Se]c1ccccc1 (centres unmarked) [Compound 646189]	0.92	−1.0		
CCOC(OCC)C(CC)[Se]c1ccccc1[N+](=O)[O-] (centres unmarked) [Compound 646200]			−3.7	1.14
COc1cc(/C=C(\OC(C)=O)c2ccc3c(c2)OCO3)cc(OC)c1OC [Compound 647363]	0.93	−17.1		
CN/N=C(\C)C(CN1CCCCC1)C(C1=C(O)c2ccccc2OC1)c1ccccc1.Cl (centres unmarked) [Compound 647418]			−24.7	1.00
O=C1Oc2ccccc2C1C/C(=N\Nc1ccccc1)c1ccccc1O (centres unmarked) [Compound 647613]	0.91	23.5		
CN(C)[C@H]1CCC2[C@@H]3CCC4C[C@@H](NC(=O)NC(Cc5ccccc5)c5nccs5)CC[C@]4(C)C3CC[C@@]21C (some centres unmarked) [Compound 647889]	0.89	1.6		
O=C(C=C1SCCS1)/C=C\c1ccc(Cl)cc1 [Compound 648320]			−32.6	1.08
COc1cc(CC(=O)c2cc3c(cc2-c2ccccc2)OCO3)cc(OC)c1OC [Compound 648419]			8.6	0.90
COc1cc(/C=C(\C)c2ccc3c(c2)OCO3)cc(OC)c1OC [Compound 648422]	1.02	−17.5		
Cc1nc2c(o1)C(=O)c1ccccc1C2=Nc1ccccc1 [Compound 650573]	0.86	−14.3		
Cc1ccc(S(=O)(=O)N2CCSCCSCCSCCSCC2)cc1 [Compound 650792]	0.86	−1.2		
CCC(=O)OC1CCn2c1nc1c2C(=O)C(C)=C(N2CC2)C1=O (centres unmarked) [Compound 651079]	1.05	−16.7		
CC1=C(N2CC2)C(=O)c2nc3n(c2C1=O)CCC3OC(=O)CCl (centres unmarked) [Compound 651080]			−4.4	0.85
COCC(=O)OC1CCn2c1nc1c2C(=O)C(C)=C(NC(C)=O)C1=O (centres unmarked) [Compound 651084]			8.1	0.95
COc1ccc(/C=C2/C(=O)N(C(=O)c3ccccc3O)N=C2C)cc1 [Compound 652174]	0.87	33.4		
OCc1ccc(-c2ccc(-c3ccc(CO)s3)o2)s1 [Compound 652287]			−5.4	0.98
OCCNCN(CNCCO)c1nc(N(CNCCO)CNCCO)nc(N(CNCCO)CNCCO)n1 [Compound 653000]	0.97	1.2		

Other lines, results leading:

Int.* (Ratio) (Interference) [1]	Inh. (%) (Inhibition) (MBHA with DNA substrate)	Inh. (%) (Inhibition) (MBHA with a DNA substrate)	Int.* (Ratio) (Interference) [2]	Structure (SMILES)
0.88	17.5			Cc1cc(=O)[nH]c(NN2C(Cl)C(=O)C2c2cccc([N+](=O)[O-])c2)n1 (centres unmarked) [Compound 653010]
0.91	17.7			Cc1cc(=O)[nH]c(NN2C(Cl)C(=O)C2c2cccc(Cl)c2)n1 (centres unmarked) [Compound 653012]
		−40.6	1.02	Cc1cc(=O)[nH]c(NN2C(Cl)C(=O)C2c2c(O)ccc3ccccc23)n1 (centres unmarked) [Compound 653016]
		−3.1	0.98	C[CH2][Ge]([CH2]C)([CH2]C)[O]C(=O)CCC(=O)[O][Ge]([CH2]C)([CH2]C)[CH2]C [Compound 653558]
0.98	1.1			Cc1cc(NC(=O)NC(=O)c2ccccc2NC(=O)CN)ccc1Oc1ncc(Br)cn1.Cl [Compound 654259]
		−6.0	1.02	COC(=O)c1ccc(NCc2cc(O)ccc2O)cc1 [Compound 654705]
1.01	−17.3			CCN1CCC(O)(/C=C/c2ccc(C)cc2)C(C(=O)/C=C/c2ccc(C)cc2)C1.Cl (centres unmarked) [Compound 657298]
		−21.5	1.00	COc1ccccc1/C=C1\Sc2scc(-c3cccc([N+](=O)[O-])c3)[n+]2C1=O [Compound 657446]
		−25.4	1.00	Cc1cc(O)c(/C=N/C(N)=S)c(=O)o1 [Compound 657449]
		−6.1	0.85	Oc1[nH]c2ccccc2c1N=Nc1nc(-c2ccc(Br)cc2)cs1 [Compound 657456]
1.06	−14.5			COc1cc(/C=C2\S/C(=N/Nc3nc(-c4ccc(Br)cc4)cs3)NC2=O)cc(OC)c1OC [Compound 657457]
0.94	−14.8			O=C1/C(=C/c2ccc([N+](=O)[O-])cc2)Sc2scc(-c3cccc([N+](=O)[O-])c3)[n+]21.[Cl-] [Compound 657598]
0.94	−15.1			CCCn1c(=O)c2ccccc2[n+]2c(-c3ccc([N+](=O)[O-])cc3)csc12.[Br-] [Compound 657603]
		9.1	0.93	Cc1cccc(C)c1NC(=O)C(=O)C(c1ccccc1Cl)S(=O)(=O)Cc1ccccc1Cl (centres unmarked) [Compound 657722]
0.98	5.8			COc1ccc(CCN(C)CCCC(C#N)(c2ccc(OC)c(OC)c2)C(C)C)cc1OC.Cl (centres unmarked) [Compound 657799]
1.06	−14.6			O=[N+]([O-])c1ccc2c(c1)/C(=N/N=C1c3ccccc3Cc3ccccc31)c1cc([N+](=O)[O-])cc([N+](=O)[O-])c1-2 [Compound 658139]

Reference: patent US9464064B2, “HCV helicase inhibitors and methods of use thereof” (University of Kansas, priority 2011, dated 2016)
